Patent publication US11026427B2, “Microbiocidal oxadiazole derivatives” (SYNGENTA PARTICIPATIONS AG, priority 2016, dated 2021)

Key:
Phakopsora pachyrhizi = Phakopsora pachyrhizi / soybean / leaf disc preventative (Asian soybean rust); assay type: in vivo; conditions: foliar, 200 ppm in the applied formulation, compared to untreated control, read-out: disease control
Procedure, shortened: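 Read-out is percent disease control relative to untreated check discs, assessed once untreated discs show adequate disease, 12 to 14 days after application. Compounds, tested at 200 ppm in the applied formulation, are sprayed onto soybean leaf discs one day before inoculation with a spore suspension.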

Uromyces viciae-fabae = Uromyces viciae-fabae / field bean / leaf disc preventative (faba-bean rust); assay type: in vivo; conditions: foliar, 288 h, 100 ppm in the applied formulation, compared to untreated control, read-out: disease control
Procedure: Leaf disks or leaf segments of various plant species are cut from plants grown in a greenhouse. The cut leaf disks or segments are placed in multiwell plates (24-well format) onto water agar. The leaf disks are sprayed with a test solution before (preventative) or after (curative) inoculation. Compounds to be tested are prepared as DMSO solutions (max. 10 mg/ml) which are diluted to the appropriate concentration with 0.025% Tween20 just before spraying. The inoculated leaf disks or segments are incubated under defined conditions (temperature, relative humidity, light, etc.) according to the respective test system. A single evaluation of disease level is carried out 3 to 14 days after inoculation, depending on the pathosystem. Percent disease control relative to the untreated check leaf disks or segments is then calculated.
Field bean leaf discs are placed on water agar in multiwell plates (96-well format) and 10 μl of the formulated test compound diluted in acetone and a spreader pipetted onto the leaf disc. Two hours after application leaf discs are inoculated by spraying a spore suspension on the lower leaf surface. The leaf discs are incubated in a climate cabinet at 22° C. with 18 hour day and 70% relative humidity. The activity of a compound is assessed as percent disease control compared to untreated when an appropriate level of disease damage appears in untreated check leaf disks (12 days after application).
The following compounds at 100 ppm in the applied formulation give at least 80% disease control in this test when compared to untreated control leaf discs under the same conditions, which show extensive disease development.

[1] = tested on: Puccinia recondita f. Sp. tritici; assay: Puccinia recondita f. sp. tritici / wheat / leaf disc preventative (brown rust); assay type: in vivo; conditions: foliar, 200 ppm in the applied formulation, compared to untreated control, read-out: disease control
Procedure, shortened: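 Single evaluation 7–9 d after spraying: % disease control compared with untreated leaf segments. Protocol: cv. Kanzler segments, preventative spray at 200 ppm, spore inoculation at day 1, 19° C., 75% rh, 12 h light/12 h dark.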

[2] = tested on: Glomerella lacenarium (Colletotrichum lacenarium); assay: Glomerella lacenarium (Colletotrichum lacenarium) liquid culture / cucumber / preventative (anthracnose); assay type: cell-based; conditions: 20 ppm in the applied formulation, growth inhibition measured photometrically, compared to untreated control, read-out: disease control
Procedure, shortened: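 Spore-based broth assay: conidia mixed into PDB meet compound from a DMSO solution in 96-well format, incubate at 24° C., then inhibition of growth is determined by photometry 3–4 days later relative to the untreated check.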

[3] = tested on: Puccinia recondita f. Sp. tritici; assay: Puccinia recondita f. sp. tritici / wheat / leaf disc curative (brown rust); assay type: in vivo; conditions: foliar, 200 ppm in the applied formulation, compared to untreated control, read-out: disease control
Procedure, shortened: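 Compounds, prepared from DMSO solutions of at most 10 mg/ml and diluted just before spraying, are applied curatively to inoculated Kanzler wheat leaf segments. Segments are incubated at 19° C and 75% RH in a climate cabinet; disease control relative to untreated is evaluated 6 to 8 days later.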

Row | melting point | SMILES | pest or weed control at 200 ppm (Phakopsora pachyrhizi) | pest or weed control at 100 ppm (Uromyces viciae-fabae) | pest or weed control at 200 ppm [1] | inhibition of growth at 20 ppm [2] | pest or weed control at 200 ppm [3]
1 | 63 to 69 °C | OC(c1ccccc1)c1ccc(-c2noc(C(F)(F)F)n2)cc1 (centres unmarked) [Compound 2.2, phenyl-[4-[5-(trifluoromethyl)-1,2,4-oxadiazol-3-yl]phenyl]methanol] | ≥ 80% | ≥ 80% | ≥ 80% | ≥ 80% | 
2 | 93 to 96 °C | CC#CC(O)c1ccc(-c2noc(C(F)(F)F)n2)cc1 (centres unmarked) [Compound 2.6, 1-[4-[5-(trifluoromethyl)-1,2,4-oxadiazol-3-yl]phenyl]but-2-yn-1-ol] | ≥ 80% | ≥ 80% | ≥ 80% | ≥ 80% | ≥ 80%
